Assay results: US9505728B2, “Triazolone compounds and uses thereof” (INCEPTION 2, INC., priority 2012, dated 2016)

biological target: T1, Human PPARα (Homo sapiens, UniProt Q07869); assay: Human PPARα Reporter Assay (luciferase); assay type: cell-based; settings: human PPARα reporter cells, overnight incubation, antagonism; read-out: Luciferase IC50
T1 construct: host or cells: proprietary non-human mammalian cells
T1 sequence (Q07869 1-468): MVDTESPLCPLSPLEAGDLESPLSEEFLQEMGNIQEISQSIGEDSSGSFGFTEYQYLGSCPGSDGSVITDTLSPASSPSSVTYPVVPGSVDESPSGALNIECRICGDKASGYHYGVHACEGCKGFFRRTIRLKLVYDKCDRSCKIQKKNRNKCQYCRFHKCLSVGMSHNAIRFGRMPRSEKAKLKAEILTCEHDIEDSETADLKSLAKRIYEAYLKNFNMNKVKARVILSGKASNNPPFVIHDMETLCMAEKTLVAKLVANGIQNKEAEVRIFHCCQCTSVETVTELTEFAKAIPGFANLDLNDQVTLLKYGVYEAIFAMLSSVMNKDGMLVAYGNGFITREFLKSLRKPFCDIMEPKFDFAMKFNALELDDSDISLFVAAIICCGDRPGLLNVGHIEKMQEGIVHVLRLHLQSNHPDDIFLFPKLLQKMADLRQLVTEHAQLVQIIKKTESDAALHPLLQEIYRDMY
Experimental: Human PPARα Reporter Assay
The screening of test compounds for agonist or antagonist activities against human PPARα receptors was performed using a commercial kit, Human PPARα Reporter Assay System (Indigo Biosciences, Cat. #IB00111).
This nuclear receptor assay system utilizes proprietary non-human mammalian cells engineered to provide constitutive, high-level expression of Human PPARα. Because these cells incorporate a PPARα-responsive luciferase reporter gene, quantifying expressed luciferase activity provides a sensitive surrogate measure of PPARα activity in the treated cells. The primary application of this reporter assay system is in the screening of test samples to quantify any functional activity, either agonist or antagonist, that they may exert against human PPARα.
Briefly, reporter cells are dispensed into wells of the assay plate and then immediately dosed with test compounds. Following an overnight incubation, the treatment media is discarded and Luciferase Detection Reagent (LDR) is added. The intensity of light emission from the ensuing luciferase reaction provides a sensitive measure that is directly proportional to the relative level of PPARα activation in the reporter cells.

Structure (SMILES)	IC50
CCC(=O)NS(=O)(=O)c1cccc(-c2ccc(CCCc3nn(Cc4ccc(C(C)(C)C)cc4)c(=O)n3CC)cc2)c1 [Example 103, N-((4′-(3-(1-(4-(tert-Butyl)benzyl)-4-ethyl-5-oxo-4,5-dihydro-1H-1,2,4-triazol-3-yl)propyl)-[1,1′-biphenyl]-3-yl)sulfonyl)propionamide]	0.436 µM
CCn1c(CCCc2ccc(-c3ccc(F)c(CC(=O)O)c3)cc2)nn(Cc2ccc(C(C)(C)C)cc2)c1=O [Example 33, 2-(4′-(3-(1-(4-(tert-Butyl)benzyl)-4-ethyl-5-oxo-4,5-dihydro-1H-1,2,4-triazol-3-yl)propyl)-4-fluoro-[1,1′-biphenyl]-3-yl)acetic acid]	0.427 µM
CCn1c(CCCc2ccc(-c3cccc(CC(=O)O)c3)cc2)nn(Cc2ccc(C3CC3)cc2)c1=O [Example 22, 2-(4′-(3-(1-(4-Cyclopropylbenzyl)-4-ethyl-5-oxo-4,5-dihydro-1H-1,2,4-triazol-3-yl)propyl)-[1,1′-biphenyl]-3-yl)acetic acid]	0.612 µM
CCn1c(CCCc2ccc(-c3cccc(CC(=O)O)c3)cc2)nn(Cc2ccc(Br)cc2)c1=O [Example 37, 2-(4′-(3-(1-(4-Bromobenzyl)-4-ethyl-5-oxo-4,5-dihydro-1H-1,2,4-triazol-3-yl)propyl)-[1,1′-biphenyl]-3-yl)acetic acid]	1.96 µM
CCn1c(CCCc2ccc(-c3ccc(C(=O)C(=O)NC4CC4)cc3)cc2)nn(Cc2ccc(C(C)(C)C)cc2)c1=O [Example 52, 2-(4′-(3-(1-(4-(tert-Butyl)benzyl)-4-ethyl-5-oxo-4,5-dihydro-1H-1,2,4-triazol-3-yl)propyl)-[1,1′-biphenyl]-4-yl)-N-cyclopropyl-2-oxoacetamide]	0.44 µM
CCn1c(CCCc2ccc(-c3ccc(OC)c(CNS(=O)(=O)Cc4ccccc4)c3)cc2)nn(Cc2ccc(C(C)(C)C)cc2)c1=O [Example 188, 1-{[4-(tert-Butyl)phenyl]methyl}-4-ethyl-3-(3-{4-[4-methoxy-3-({[benzylsulfonyl]amino}methyl)phenyl]phenyl}propyl)-1,2,4-triazolin-5-one]	0.43 µM
CCn1c(CCCc2ccc(-c3ccc(NS(=O)(=O)Cc4ccccc4)c(C)n3)cc2)nn(Cc2ccc(C(C)(C)C)cc2)c1=O [Example 125, 1-{[4-(tert-Butyl)phenyl]methyl}-4-ethyl-3-{3-[4-(6-methyl-5-{[benzylsulfonyl]amino}(2-pyridyl))phenyl]propyl}-1,2,4-triazolin-5-one]	0.356 µM
CCn1c(CCCc2ccc(-c3cccc(-c4nnn[nH]4)c3)cc2)nn(Cc2ccc(C(C)(C)C)cc2)c1=O [Example 29, 3-(3-(3′-(1H-Tetrazol-5-yl)-[1,1′-biphenyl]-4-yl)propyl)-1-(4-(tert-butyl)benzyl)-4-ethyl-1H-1,2,4-triazol-5(4H)-one]	1.19 µM
CCn1c(CCCc2ccc(-c3cccc(C4(C(N)=O)CC4)c3)cc2)nn(Cc2ccc(C(C)(C)C)cc2)c1=O [Example 14, 1-(4′-(3-(1-(4-(tert-butyl)benzyl)-4-ethyl-5-oxo-4,5-dihydro-1H-1,2,4-triazol-3-yl)propyl)-[1,1′-biphenyl]-3-yl)cyclopropanecarboxamide]	0.284 µM
CCn1c(CCCc2ccc(-c3cccc(NC(=O)Cc4ccccc4)n3)cc2)nn(Cc2ccc(C(C)(C)C)cc2)c1=O [Example 101, N-(6-{4-[3-(1-{[4-(tert-Butyl)phenyl]methyl}-4-ethyl-5-oxo(1,2,4-triazolin-3-yl))propyl]phenyl}(2-pyridyl))-2-phenylacetamide]	0.402 µM
CCC(C(=O)O)c1cccc(-c2ccc(CCCc3nn(Cc4ccc(C(C)(C)C)cc4)c(=O)n3CC)cc2)c1 (stereo not drawn) [Example 46, 2-(3-{4-[3-(1-{[4-(tert-Butyl)phenyl]methyl}-4-ethyl-5-oxo-1,2,4-triazolin-3-yl)propyl]phenyl}phenyl)butanoic acid]	0.699 µM
CCn1c(CCCc2ccc(-c3ccc(OC)c(CCNS(C)(=O)=O)c3)cc2)nn(Cc2ccc(C(C)(C)C)cc2)c1=O [Example 183, 1-{[4-(tert-Butyl)phenyl]methyl}-4-ethyl-3-{3-[4-(4-methoxy-3-{2-[(methylsulfonyl)amino]ethyl}phenyl)phenyl]propyl}-1,2,4-triazolin-5-one]	0.44 µM
CCn1c(CCCc2ccc(-c3csc(C4(F)COC4)n3)cc2)nn(Cc2ccc(C(C)(C)C)cc2)c1=O [Example 201, 1-(4-(tert-Butyl)benzyl)-4-ethyl-3-(3-(4-(2-(3-fluorooxetan-3-yl)thiazol-4-yl)phenyl)propyl)-1H-1,2,4-triazol-5(4H)-one]	0.533 µM
CCn1c(CCCc2ccc(-c3ccc(S(=O)(=O)NCc4ccccc4)cc3)cc2)nn(Cc2ccc(C(C)(C)C)cc2)c1=O [Example 99, N-benzyl-4′-(3-(1-(4-(tert-butyl)benzyl)-4-ethyl-5-oxo-4,5-dihydro-1H-1,2,4-triazol-3-yl)propyl)-[1,1′-biphenyl]-4-sulfonamide]	0.524 µM
CCn1c(CCCc2ccc(-c3ccc(NS(=O)(=O)c4ccccc4)c(C)n3)cc2)nn(Cc2ccc(C(C)(C)C)cc2)c1=O [Example 124, 1-{[4-(tert-Butyl)phenyl]methyl}-4-ethyl-3-[3-(4-{6-methyl-5-[(phenylsulfonyl)amino](2-pyridyl)}phenyl)propyl]-1,2,4-triazolin-5-one]	0.29 µM

These reach a lower IC50. Values come first.

IC50	Structure (SMILES)
0.192 µM	CCn1c(CCCc2ccc(-c3ccc(OC)c(CC(=O)NS(C)(=O)=O)c3)cc2)nn(Cc2ccc(C(C)(C)C)cc2)c1=O [Example 135, 2-(4′-(3-(1-(4-(tert-Butyl)benzyl)-4-ethyl-5-oxo-4,5-dihydro-1H-1,2,4-triazol-3-yl)propyl)-4-methoxy-[1,1′-biphenyl]-3-yl)-N-(methylsulfonyl)acetamide]
0.127 µM	CCn1c(CCCc2ccc(-c3nccc(NS(=O)(=O)c4ccccc4)n3)cc2)nn(Cc2ccc(C(C)(C)C)cc2)c1=O [Example 81, N-(2-(4-(3-(1-(4-(tert-Butyl)benzyl)-4-ethyl-5-oxo-4,5-dihydro-1H-1,2,4-triazol-3-yl)propyl)phenyl)pyrimidin-4-yl)benzenesulfonamide]
0.126 µM	CCn1c(CCCc2ccc(-c3ccc(OC)c(CC(=O)O)c3)c(C(F)(F)F)c2)nn(Cc2ccc(C(C)(C)C)cc2)c1=O [Example 150, 2-(4′-(3-(1-(4-(tert-Butyl)benzyl)-4-ethyl-5-oxo-4,5-dihydro-1H-1,2,4-triazol-3-yl)propyl)-4-methoxy-2′-(trifluoromethyl)-[1,1′-biphenyl]-3-yl) acetic acid]
0.126 µM	CCn1c(CCCc2ccc(-c3cnc(C4(O)COC4)nc3)cc2)nn(Cc2ccc(C(C)(C)C)cc2)c1=O [Example 173, 1-(4-(tert-Butyl)benzyl)-4-ethyl-3-(3-(4-(2-(3-hydroxyoxetan-3-yl)pyrimidin-5-yl)phenyl)propyl)-1H-1,2,4-triazol-5(4H)-one]
0.049 µM	CCn1c(CCC(F)(F)c2ccc(-c3ccc(C4(F)COC4)cn3)cc2)nn(Cc2ccc(C(C)(C)C)cc2)c1=O [Example 195, 1-(4-(tert-Butyl)benzyl)-3-(3,3-difluoro-3-(4-(5-(3-fluorooxetan-3-yl)pyridine-2-yl)phenyl)propyl)-4-ethyl-1H-1,2,4-triazol-5(4H)-one]
0.041 µM	CCn1c(CCCc2ccc(-c3ccc(OC)c(CC(=O)NS(=O)(=O)c4ccccc4)c3)cc2)nn(Cc2ccc(C(C)(C)C)cc2)c1=O [Example 136, 2-(4′-(3-(1-(4-(tert-Butyl)benzyl)-4-ethyl-5-oxo-4,5-dihydro-1H-1,2,4-triazol-3-yl)propyl)-4-methoxy-[1,1′-biphenyl]-3-yl)-N-(phenylsulfonyl)acetamide]
0.039 µM	CCn1c(CCCc2ccc(-c3ccc(OC(F)F)c(C(=O)O)c3)cc2)nn(Cc2ccc(C(C)(C)C)cc2)c1=O [Example 121, 4′-(3-(1-(4-(tert-Butyl)benzyl)-4-ethyl-5-oxo-4,5-dihydro-1H-1,2,4-triazol-3-yl)propyl)-4-(difluoromethoxy)-[1,1′-biphenyl]-3-carboxylic acid]
0.036 µM	CCn1c(CCCc2ccc(-c3cncc(NS(=O)(=O)c4ccccc4)n3)cc2)nn(Cc2ccc(C(C)(C)C)cc2)c1=O [Example 129, N-(6-(4-(3-(1-(4-(tert-Butyl)benzyl)-4-ethyl-5-oxo-4,5-dihydro-1H-1,2,4-triazol-3-yl)propyl)phenyl)pyrazin-2-yl)benzenesulfonamide]
0.024 µM	CCCCn1c(CCCc2ccc(-c3ccc(OCC)c(CC(=O)O)c3)cc2)nn(Cc2ccc(C(C)(C)C)cc2)c1=O [Example 69, 2-(4′-(3-(4-Butyl-1-(4-(tert-butyl)benzyl)-5-oxo-4,5-dihydro-1H-1,2,4-triazol-3-yl)propyl)-4-ethoxy-[1,1′-biphenyl]-3-yl)acetic acid]
